This note sets out measurements from ChEMBL document CHEMBL3507680, “University of Dundee, Gates Library screen for HepG2 cell viability”.

The series can be described thus: Human HepG2 cell viability assay in 384 well format. It counts as toxicity, cell-based. Further details: dose 125 nL, time 70.5 hour; cytotoxicity at 70.5 h: concentration not given beside the values. The conditions noted are these: HepG2 cells, read-out: Inhibition.

With `CC1CN(C)c2ccccc2CN1C(=O)NCc1ccon1` (stereo not drawn), the cytotoxicity at 70.5 h was -0.0778%. As for `CS(=O)(=O)NCCCNCc1cc(F)ccc1Br`, the cytotoxicity at 70.5 h was -2.01%. For `Cc1noc(C)c1CNC(=O)N1Cc2ccccc2N(C)CC1C` (stereo not drawn) the value was 7.21%.

`Cc1cc(CN2CCCC(NS(C)(=O)=O)C2)ccc1-n1cncn1` (stereo not drawn): the cytotoxicity at 70.5 h came out at 11.7%. On to `Cc1cc(N2CCCC(OC(=O)CCN3CCCC3=O)C2)nc(C)n1` (stereo not drawn), for which the cytotoxicity at 70.5 h is -5.43%.

Take `Clc1ccc(CNc2ccc(Cl)cn2)cc1`: the cytotoxicity at 70.5 h was -9.29%. For `Cc1ccsc1CNC(=O)CSc1nnc[nH]1` the value was -11.1%; for `Cc1cccnc1NC(=O)C1CCN(C(=O)C(C)C)CC1`, -19.2%; for `CN1CCN(c2ccc(NC(=O)c3cccs3)c(C(F)(F)F)c2)CC1`, -9.41%.

Regarding `Cc1noc(C)c1CCC(=O)N(C)C(C)c1cccs1` (stereo not drawn), the cytotoxicity at 70.5 h is -11.3%. For `COc1ccc(C(C)Nc2ncc(C(N)=O)cc2Cl)c(OC)c1` (stereo not drawn) the value was -4.47%; for `CCn1ccc2cc(NC(=O)CC3CCCO3)ccc21` (stereo not drawn), -6.31%.

In the case of `Cc1nc(C2(NCc3c(C)nn(C)c3N3CCOCC3)CCC2)no1`, the cytotoxicity at 70.5 h is 10.7%. Regarding `CCOCCN1CCN(CC(O)c2cc(Cl)ccc2Cl)CC1` (stereo not drawn), the cytotoxicity at 70.5 h is -5.82%. For `Cc1nn(C)cc1C(C)Nc1ncc(C(N)=O)cc1Cl` (stereo not drawn), the cytotoxicity at 70.5 h was -5.7%.

In the case of `Cc1cc(CS(=O)(=O)NC2CCCCC2)on1`, the cytotoxicity at 70.5 h is -15.3%. As for `COc1ccc(Br)cc1CCC(=O)N1CCCC(O)C1` (stereo not drawn), the cytotoxicity at 70.5 h was -5.19%.

On to `COc1ccc(Br)cc1CCC(=O)N1CCSCC1`, for which the cytotoxicity at 70.5 h is 8.26%. For `COc1ccc(Br)cc1CCC(=O)N1CCCC1` the value was -0.161%; for `COc1cc(C)c(NC(=O)CCn2cccc2)cc1OC`, -6.6%. Turning to `Cc1cccnc1C(NC(=O)CNC(=O)c1ccoc1C)C(C)C` (stereo not drawn), the cytotoxicity at 70.5 h came to 3.13%. For `CN(c1ccc(CNc2ccc(Cl)cn2)cc1)S(C)(=O)=O` the value was -4.71%; for `Cc1ccc(C(=O)N2CC(C(N)=O)O[C@H](C)C2)c(F)c1` (stereo partly drawn), -0.939%. For `CCCS(=O)(=O)N1CCN(C(=O)CO)CC1` the value was -6.95%; for `COc1cc(Cl)c(NC(=O)NCCn2cccc2)cc1OC`, -4.58%; for `O=C(CO)N1CCN(S(=O)(=O)CCCF)CC1`, 3.01%. With `CCc1nn(C)c(CC)c1CNC(=O)Nc1cccc2c1CCN2C`, the cytotoxicity at 70.5 h was -0.865%. For the compound `CN1CCN(c2ccc(NC(=O)c3ccoc3)c(C(F)(F)F)c2)CC1`, the cytotoxicity at 70.5 h is -7.05%. For `COCCCC(=O)N(C)c1ccc(F)c(Cl)c1` the value was -8.74%. For `Cc1ccc(C(=O)N2CC(C(N)=O)O[C@H](C)C2)c(C)c1` (stereo partly drawn), the cytotoxicity at 70.5 h is 1.19%.

Consider `CC(C)C(=O)NS(=O)(=O)c1ccc2c(c1)N(C)CCC2`, for which the cytotoxicity at 70.5 h was -8.04%. For `COc1ccc(C2CCCN2C(=O)c2ccnc(NC3CC3)c2)cc1` (stereo not drawn) the value was 6.42%; for `CCN(C(=O)CCc1ccccc1)C1CC(=O)NC1=O` (stereo not drawn), 0.716%; for `CC(NCc1ccc(OCc2nccn2C)cc1)c1cccnc1` (stereo not drawn), -9.04%.

Turning to `COCCNC(=O)Nc1ccc(-c2nc(C(C)C)no2)cc1`, the cytotoxicity at 70.5 h is -6.61%. For `CC(C)OC(=O)CNC(=O)Nc1ccc(-c2nc(C(C)C)no2)cc1`, the cytotoxicity at 70.5 h worked out at 2.82%. For `Cc1nnc2n1CCN(Cc1nc3c(F)cccc3[nH]1)C2` the value was -9.16%. For `CS(=O)(=O)N1CCCN(c2nccn3cnnc23)CC1` the value was -6.97%. For `CCc1cnc(NC(=O)NC2CCN(C)CC2)s1` the value was 10.3%. On to `c1csc(N2CCCN(c3nccn4cnnc34)CC2)n1`, for which the cytotoxicity at 70.5 h was 3.4%. For `O=C(NCc1ccncc1)N1CC(Cc2ccccc2F)C1` the value was -5.27%. For `COc1cc(-n2cccc2)c(Cl)cc1C(N)=O` the value was -3.56%; for `CC(C)CS(=O)(=O)NC(=O)c1ccc2c(c1)ncn2C`, -4.45%. For `Cn1cnc2cc(C(=O)NS(=O)(=O)CC3CCCC3)ccc21` the value was 0.122%; for `CCn1cc(CNC2CCN(c3c(F)cccc3F)C2)cn1` (stereo not drawn), -0.658%.

For `CC(CS(C)(=O)=O)N(C(=O)CCc1cccc(F)c1)C1CC1` (stereo not drawn), the cytotoxicity at 70.5 h was found to be 12.6%.

On to `CN(C)C(=O)N1CCN(C(=O)c2ccn3ccnc3c2)CC1`, for which the cytotoxicity at 70.5 h is -3.58%. For `Cc1ccc(N(C)C2CCCN(C(=O)Nc3ccc(F)cc3F)C2)cc1` (stereo not drawn) the value was -2.7%; for `COCCN1CCN(CCCc2nnnn2-c2ccccc2)CC1`, -14.2%; for `Cc1ccc(C(=O)Nc2ccc(N3CCCC3)cn2)cc1F`, 19.7%. With `c1cnc(N2CCN(Cc3nnnn3C3CC3)CC2)nc1`, the cytotoxicity at 70.5 h is -16.2%. For `CCCNC(=O)CN1CCOC(c2ccc(Br)cc2)C1` (stereo not drawn) the value was -6.67%; for `CNC(=O)NC(=O)CCN1CCOC(c2ccc(Br)cc2)C1` (stereo not drawn), -7.41%; for `CN(C)S(=O)(=O)c1ccc(CN2CCC(C(N)=O)CC2)o1`, -2.97%. For `CC(=O)N1CCN(C(=O)NCCCc2cn[nH]c2C)CC1` the value was -14.4%; for `Cc1n[nH]cc1CNCC(c1cccc(F)c1)N(C)C` (stereo not drawn), -1.43%; for `Cn1nccc1C(=O)N1C[C@@H]2CN(S(C)(=O)=O)CCO[C@@H]2C1`, -3.72%. In the case of `O=C1CCCN1Cc1nnc2n1CCCN(C(=O)c1ccco1)C2`, the cytotoxicity at 70.5 h is 22.7%. In the case of `CO[C@H]1CC[C@H]2[C@H]1OCCN2C(=O)c1nn(C)c2ccccc12`, the cytotoxicity at 70.5 h was -3.21%. For `CCN1CCNC(=O)C12CCN(C(=O)c1ccccn1)CC2` the value was 18.3%. For `Cc1ccc2c(n1)N(CC1CC1)CCN(Cc1cnn(C)c1)C2` the value was 30.4%. Consider `CCO[C@H]1CC[C@H]2[C@H]1OCCN2C(=O)CC1=CCCCC1`, for which the cytotoxicity at 70.5 h came to 24%.

As for `Cc1ccc2c(n1)N(C)CCN(Cc1cnn(C)c1)C2`, the cytotoxicity at 70.5 h was -2.39%.

As for `COCCn1c2c(ccc1=O)CCN(C(=O)Cc1cccs1)CC2`, the cytotoxicity at 70.5 h was -5.4%. For `COc1cc(N2CCC3(CC2)CN(S(C)(=O)=O)c2ccccc23)ncn1` the value was -2.83%.

As to `COCCn1c2c(ccc1=O)CCN(C(=O)Cc1ccsc1)CC2`, the cytotoxicity at 70.5 h came to 2.04%. For `O=C(C1CC(F)(F)C1)N1C[C@@H]2CN(Cc3ccoc3)CCO[C@@H]2C1` the value was -3.45%; for `CS(=O)(=O)N1CCO[C@@H]2CN(C(=O)C3CC(F)(F)C3)C[C@@H]2C1`, -3.63%.

In the case of `CN1[C@H](CN2CCCC2)C[C@@H]2CN(C(=O)c3cnccn3)CC[C@@H]21`, the cytotoxicity at 70.5 h was -4.55%. For `Cc1occc1C(=O)N1C[C@@H]2CCCO[C@@H]2[C@H](NS(C)(=O)=O)C1` the value was -1.97%. For `O=C(CC1CC1)N[C@@H]1CN(C(=O)c2ccsc2)C[C@@H]2CCCO[C@@H]21` the value was -1.55%. For `Cc1ccc(N2CCC3(CCN(Cc4csc(C)n4)C3=O)C2)nn1` (stereo not drawn) the value was -3.25%; for `COc1cc(N2CCC3(CCN(Cc4cccnc4)C3=O)C2)ncn1` (stereo not drawn), -4.34%; for `Cn1nc(CNc2ncccn2)c2c1CN(c1cnccn1)CC2`, -8.13%. On to `O=C(c1ccco1)N1CCO[C@@H]2CNC[C@@H]21`, for which the cytotoxicity at 70.5 h is -6.25%.

Turning to `Cn1cc(CN2C[C@@H]3CN(C(=O)c4cccn4C)CCO[C@@H]3C2)cn1`, the cytotoxicity at 70.5 h is -2.93%.

With `CC(=O)N1CC[C@H]2N(C)CC[C@@]2(C(=O)Nc2cccnc2)CC1`, the cytotoxicity at 70.5 h is -8.43%.

Turning to `COc1c(CNC2(c3noc(C)n3)CCC2)c(C)nn1C`, the cytotoxicity at 70.5 h was -7.32%.

Take `CN(C)C(=O)CO[C@H]1CN(Cc2ccoc2)[C@@H]2COC[C@H]12`: the cytotoxicity at 70.5 h was -5.51%. For `CN(C)C(=O)CO[C@H]1CN(Cc2ccc3c(c2)OCO3)[C@@H]2COC[C@H]12` the value was -4.69%; for `CN1CCO[C@@H]2CN(S(=O)(=O)c3ccccc3)C[C@@H]2C1`, 20.2%; for `O=C(C1CC(F)(F)C1)N1C[C@@H]2CN(CC3CCCC3)CCO[C@@H]2C1`, 22.1%.

In the case of `COc1ccc(C[C@H]2CN(Cc3ccoc3)CC[C@H]2OC)cc1`, the cytotoxicity at 70.5 h was -0.279%.

For `CCN1CCN(C)C(=O)C12CCN(C(=O)Cc1ccccn1)CC2`, the cytotoxicity at 70.5 h worked out at 0.951%. Consider `CO[C@@H]1CCN(Cc2ccoc2)[C@H]1Cc1ccccc1`, for which the cytotoxicity at 70.5 h was -5.28%. Turning to `O=C(O)[C@]12CCCN(C3CCOC3)C[C@H]1CN(c1nncs1)C2` (stereo partly drawn), the cytotoxicity at 70.5 h was -7.95%.

`COc1cc(N2CCC3(CCCN(Cc4ccccn4)C3)C2)ncn1` (stereo not drawn): the cytotoxicity at 70.5 h is -5.46%. For `Cc1cnc(N2C[C@@H]3CN(C4CCOC4)CCC[C@]3(C(=O)O)C2)nc1` (stereo partly drawn) the value was -7.9%; for `COc1cc(N2CCC3(CCN(Cc4csc(C)n4)C3)CC2)ncn1`, -5.2%; for `COc1cc(N2CCC3(CCN(Cc4csc(C)n4)C3=O)C2)ncn1` (stereo not drawn), -7.86%.

As for `Cc1ccoc1C(=O)N1CC[C@H]2[C@H](C[C@@H](CN3CCCC3)N2C)C1`, the cytotoxicity at 70.5 h amounted to 4.09%. Consider `CN1CCC(N2CCC(C(=O)N(C)C)CC2)CC1`, for which the cytotoxicity at 70.5 h is -0.525%.

As for `CN(C)C(=O)C1CCN(C2CCN(CC3CC3)CC2)CC1`, the cytotoxicity at 70.5 h was -5.51%. For `Cn1nc(CN2CCCC2)c2c1CN(c1cnccn1)CC2` the value was -3.39%; for `O=C(O)CN1CCCC2(CCN2Cc2cccc(F)c2)C1` (stereo not drawn), -1.42%; for `CC(C)C(=O)N1CC[C@H]2N(C)CC[C@@]2(C(=O)Nc2cccnc2)CC1`, -10.9%.

On to `c1ccc(CN2CCC3(CC2)CCN(c2ccccn2)C3)nc1`, for which the cytotoxicity at 70.5 h was -10.3%. For `CC(C)OCc1nn(C)c2c1CN(Cc1cccs1)CC2` the value was -2.74%.
